Each structure is given as a SMILES string. Read-outs that look alike come from different tables or passages of the source. Where only a bound is given, the exact number is not on record here.

For data set [1], the target named is H4-stimulated PARP1 (human Parp-1) (Homo sapiens, UniProt P09874). The data set can be described thus: Inhibition of H4-stimulated PARP1 activation. It is filed as biochemical. The conditions noted are these: human Parp-1, NAD+.
The conditions of data set [2]: ref Karpova et a., 2019; cited from earlier work.
For data set [3] the following is noted: ref Karpova et a., 2019; cited from earlier work. The source holds these as a separate data set.
In the next data set the test system is cancer cell lines. The settings on record: ref Nieborowska-Skorska et al., 2019, cited from earlier work.
Data set [4] is described as follows: Stability in mouse liver microsomes. The format is in vitro ADME. The settings on record: 1 μM, 37 °C. Background: Microsomes from liver hold many membrane-bound enzymes, among them those of drug oxidation.
A short description of data set [5]: Stability in human liver microsomes. It is filed as in vitro ADME. The conditions noted are these: 1 μM, 37 °C.
A short description of data set [6]: Maximum kinetic aqueous solubility. The settings on record: 2% DMSO/phosphate buffer pH 7.4; theoretical maximum 200 μM.
The conditions of data set [7]: 90 min, pH 7.4.
For data set [8], the system named is Nalm-6 isogenic RAD54−/− human leukemia cells. The format is cell-based. The conditions noted are these: clonogenic assay.
Setting [9] is: H4/PARP Inhibition IC50, histone H4-coated plates.
Setting [10] is: read-out: H4/PARP Inhibition IC50, histone H4-coated plates.

Sequence of H4-stimulated PARP1 (human Parp-1) (P09874 whole entry): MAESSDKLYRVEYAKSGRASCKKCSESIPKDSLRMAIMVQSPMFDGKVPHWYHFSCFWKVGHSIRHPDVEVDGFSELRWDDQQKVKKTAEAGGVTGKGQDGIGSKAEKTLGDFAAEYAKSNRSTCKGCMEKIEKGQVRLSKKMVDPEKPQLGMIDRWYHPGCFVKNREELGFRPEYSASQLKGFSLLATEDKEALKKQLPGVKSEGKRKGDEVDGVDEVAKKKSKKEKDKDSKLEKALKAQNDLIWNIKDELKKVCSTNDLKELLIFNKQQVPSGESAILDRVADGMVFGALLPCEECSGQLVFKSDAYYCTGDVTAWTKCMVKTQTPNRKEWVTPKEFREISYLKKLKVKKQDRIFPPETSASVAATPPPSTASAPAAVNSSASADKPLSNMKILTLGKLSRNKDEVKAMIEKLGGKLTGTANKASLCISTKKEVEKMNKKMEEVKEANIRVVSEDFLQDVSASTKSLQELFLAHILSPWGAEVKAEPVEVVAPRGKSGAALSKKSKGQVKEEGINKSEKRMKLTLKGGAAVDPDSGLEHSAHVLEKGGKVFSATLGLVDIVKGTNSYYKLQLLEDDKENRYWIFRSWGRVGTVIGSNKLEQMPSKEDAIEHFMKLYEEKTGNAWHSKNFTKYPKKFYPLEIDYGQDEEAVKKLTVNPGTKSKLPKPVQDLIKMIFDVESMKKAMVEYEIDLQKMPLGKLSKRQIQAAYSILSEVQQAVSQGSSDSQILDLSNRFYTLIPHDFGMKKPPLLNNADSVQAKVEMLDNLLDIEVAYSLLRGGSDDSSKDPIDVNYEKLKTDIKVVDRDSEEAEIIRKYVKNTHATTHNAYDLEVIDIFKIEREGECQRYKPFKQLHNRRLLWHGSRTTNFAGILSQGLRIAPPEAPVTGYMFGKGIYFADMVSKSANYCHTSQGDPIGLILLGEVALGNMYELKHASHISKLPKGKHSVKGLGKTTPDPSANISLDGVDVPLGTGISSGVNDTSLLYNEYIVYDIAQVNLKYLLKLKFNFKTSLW

In [1] (setting [9]), `C[N+]1(CC(=O)OC2CCCCCCCCCCC2)CCCCC1.[I-]` [Compound 1, 1-(2-(Cyclododecyloxy)-2-oxoethyl)-1-methylpiperidin-1-ium iodide] had an IC50 of 104 nM. Moreover, the “in vivo half-life (in words)” value in data set [2] is on record as “longer than expected”. In addition, the “plasma protein binding (in words)” value in [3] was “relatively high”. Also, in the data set with cancer cell lines (a number of cell lines), the “effect in combination with olaparib (in words)” value is “synergistic effect”. Besides, the “potency in in vitro proliferation assays compared with olaparib (in words)” value with cancer cell lines is “more potent than olaparib”.
For the compound `C[N+]1(CC(=O)OC2CCCCCCCCCCC2)CCCC1.[I-]` [Compound 2], the IC50 in [1] (setting [10]) was determined as 52.4 nM. Besides, the “Liver Microsomal Stability (t1/2, min) Mouse + NADPH” value in data set [4] was 3.8 min. In data set [5], the “Liver Microsomal Stability (t1/2, min) Human + NADPH” value is reported as < 2 min.
For `C[N+]1(CC(=O)OC2CCCCCCCCCCC2)CCCCCC1` [Compound 3, 1-(2-(Cyclododecyloxy)-2-oxoethyl)-1-methylazepan-1-ium iodide], in data set [1] (setting [9]), the IC50 turned out to be 54 nM.
In data set [1] (setting [9]), `CC1(C)CC[N+](C)(CC(=O)OC2CCCCCCCCCCC2)CC1.[I-]` [Compound 4, 1-(2-(Cyclododecyloxy)-2-oxoethyl)-1,4,4-trimethylpiperidin-1-ium iodide] had an IC50 of 45.6 nM. Besides, the “Max. Aq. Solubility” value in data set [6] is 95 µM.
Consider `C[N+]1(CC(=O)OC2CCCCCCCCCCC2)CCOCC1.[I-]` [Compound 5, 4-(2-(Cyclododecyloxy)-2-oxoethyl)-4-methylmorpholin-4-ium iodide], for which the IC50 in [1] (setting [9]) came to 34.5 nM. For the same compound, the “Max. Aq. Solubility” value in data set [7] was determined as 200 µM.
For the compound `C[N+]1(CC(=O)OC2CCCCCCCCCCC2)CCSCC1.[I-]` [Compound 6, 4-(2-(Cyclododecyloxy)-2-oxoethyl)-4-methylthiomorphilin-4-ium iodide], in [1] (setting [10]), the IC50 came out at 156 nM. For the same compound, the “Liver Microsomal Stability (t1/2, min) Mouse + NADPH” value in data set [4] is 4 min. Further, in data set [5], the “Liver Microsomal Stability (t1/2, min) Human + NADPH” value is on record as < 2 min.
In turn, `C[N+]1(CC(=O)OC2CCCCCCCCCCC2)CCNCC1.[I-]` [Compound 7, 1-(2-(Cyclododecyloxy)-2-oxoethyl)-1-methylpiperazinium iodide] came in with an IC50 in data set [1] (setting [9]) of 466 nM. Further, the “anti-clonogenic activity against BRCA-deficient NALM6 leukemia cells (in words)” value in data set [8] is “potent anti-clonogenic activity”.
For `CC(C)(C)OC(=O)N1CC[N+](C)(CC(=O)OC2CCCCCCCCCCC2)CC1.[I-]` [Compound 8, 4-(tert-Butoxycarbonyl)-1-(2-(cyclodedecyloxy)-2-oxoethyl)-1-methylpiperazin-1-ium iodide], the IC50 in [1] (setting [10]) was found to be 55.8 nM. Moreover, the “Liver Microsomal Stability (t1/2, min) Mouse + NADPH” value in data set [4] amounted to 4.1 min. Also, the “Liver Microsomal Stability (t1/2, min) Human + NADPH” value in data set [5] is < 2 min.
In data set [1] (setting [9]), `C[N+]1(CC(=O)OC2CCCCCCCCCCC2)CCC(Cc2ccccc2)CC1` (stereo not drawn) [Compound 9, 4-(Benzyl)-1-(2-(cyclododecyloxy)-2-oxoethyl)-1-methylpiperidin-1ium iodide] yielded an IC50 of 61.8 nM.
Turning to `CC[N+]1(CC(=O)OC2CCCCCCCCCCC2)CCCCC1.[I-]` [Compound 10, 1-(2-(Cyclododecyloxy)-2-oxoethyl)-1-ethylpiperidin-1-ium iodide], the IC50 in [1] (setting [9]) turned out to be 174 nM. Further, the “Max. Aq. Solubility” value in data set [7] came to 200 µM.
`CCC[N+]1(CC(=O)OC2CCCCCCCCCCC2)CCCCC1` [Compound 11, 1-(2-(Cyclododecyloxy)-2-oxoethyl)-1-(1-propyl)piperidin-1-ium iodide]: the IC50 in [1] (setting [9]) stood at 142 nM.
Still for that read-out and setting: under `CCCC[N+]1(CC(=O)OC2CCCCCCCCCCC2)CCCCC1` [Compound 12, 1-(2-(Cyclododecyloxy)-2-oxoethyl)-1-(1-butyl)piperidin-1-ium iodide] stands 136 nM; under `CCCCC[N+]1(CC(=O)OC2CCCCCCCCCCC2)CCCCC1` [Compound 13, 1-(2-(Cyclododecyloxy)-2-oxoethyl)-1-(1-pentyl)piperidin-1-ium iodide], 258 nM; under `C[N+]1(CC(=O)OC2CCCCCCCCC2)CCCCC1` [Compound 14, 1-(2-(Cyclodecyloxy)-2-oxoethyl)-1-methylpiperidin-1-ium iodide], 53.7 nM.
The same measure, in the same setting: the figure for `C[N+]1(CC(=O)OC2CCCCCCC2)CCCCC1` [Compound 15, 1-(2-(Cyclooctyloxy)-2-oxoethyl)-1-methylpiperidin-1-ium iodide] is 80 nM; for `C[N+]1(CC(=O)OC2CCCCC2)CCCCC1` [Compound 16, 1-(2-(Cyclohexyloxy)-2-oxoethyl)-1-methylpiperidin-1-ium iodide] it is 77.1 nM.
With `C[N+]1(CC(=O)OC2CCCC2)CCCCC1.[I-]` [Compound 17, 1-(2-(Cyclopentyloxy)-2-oxoethyl)-1-methylpiperidin-1-ium iodide], in [1] (setting [9]), the IC50 was found to be 57.1 nM. Besides, the “Max. Aq. Solubility” value in data set [7] stood at 200 µM.
`CN(C(=O)CO[N+]1(C)CCCCC1)C1CCCCCCCCCCC1` [Compound 18, 1-(2-(Cyclododecyl(methyl)amino)-2-oxoethoxy)-1-methylpiperidin-1ium iodide]: the IC50 in data set [1] (setting [10]) turned out to be 191 nM.

These data come from publication PMC7560981 (Medicinal chemistry research : an international journal for …, 2020).
